From patent US20110245334A1, “USE OF RACEMATES OF PINOCEMBRIN IN PREPARING MEDICAMENTS FOR TREATING STROKE” (CSPC Zhonggi Pharmaceutical Technology (Shijiazhuang) Co. …, priority 2008, published 2011) come the findings set out here.

Each structure is given as a SMILES string.

Holding throughout (assay type): in vivo, rat
One assay relates to plasma fibrinogen. In words: Plasma fibrinogen assay (ELISA) in SHRSP. More on the design: Plasma fibrinogen: unit not given here. The conditions noted are these: SHRSP rats. The procedure: The mixture was centrifuged for 15 min at 3000 rpm and plasma fibrinogen in liquid supernatant was determined by euzymelinked immunosorbent assay (ELISA).
In general terms: ELISA stands for enzyme-linked immunosorbent assay.

The subject of the next assay is plasma ET-1. Briefly: Plasma ET-1 (radioimmunoassay) in SHRSP. More on the design: ET-1 content: unit not given here. As to conditions: plasma, SHRSP rats. The protocol:
5) Blood of 2 mL was dropped rapidly in a cuvette with 30 μL 7.5% EDTA-2Na and 40 μL aprotinin and mixed. After centrifuged for 5 min at 3000 rpm, plasma ET-1 in liquid supernatant was determined by isotope radioimmunoassay.

The subject of another assay is MCAO rats. Briefly: Cerebral infarct volume (TTC), MCAO. The protocol: After neurobehavioral scoring, the rats were put to death by decollation and their brain tissues were removed quickly and put into a refrigerator of −20° C. 10 min later, the brain tissue was moved to an environment of room temperature. After the olfactory bulb, cerebellar and lower brain stem were resected, the brain tissue was cut into five continuous coronal slices with an interval of 2 mm and was cut first on the connection midpoint of brain anterior pole and optic decussation, second on optic decussation, third on funnel handle and fourth on midpoint of funnel handle and thick leaves caudate nucleus. Then the brain slices were quickly put into 5 ml solution containing 4% TTC and 0.1 ml mol·L^−1K2HPO4 and incubated at a constant temperature of 37° C. and in condition of darkness for 30 min. During the time period, the brain slices were tipped every 5 min. […] Every group of brain slices were put in order and photographed. The photographs were processed by an image analysis system and infarct area in every slice was calculated. The infarct volume of every slice was calculated by multiplying the infarct area by the thickness of slice (2 mm), and the infarct volume was the sum of infarct volumes of all slices.
Infarct volume(%)=(volume of surgery-contralateral hemisphere−infarct volume of surgery-homolateral hemisphere)/volume of surgery-contralateral hemisphere×100%

In assay [1] the test system is tMCAO rats. In words: Neurobehavioral examination (Bederson's score), tMCAO time window study. As to conditions: 2 hours ischemia and 24 hours reperfusion. The procedure: (§1) 1. In the test, transient middle cerebral artery occlusion (tMCAO) model of rats was adopted. The reperfusion was performed after focal cerebral ischemia for 2 hours so as to inspect therapeutic time window of pinocembrin after focal cerebral ischemia. The rats were administered by pinocembrin racemate (1 mg/kg, 5 mg/kg, intravenous injection) after reperfusion 1 hour, 4 hours and 6 hours (i.e., ischemia 3 hour, 6 hours and 8 hours). (R)-pinocembrin and (S)-pinocembrin (1 mg/kg, 5 mg/kg, intravenous injection) were administered after reperfusion 1 hour and 4 hours (i.e., ischemia 3 hour and 6 hours). The therapeutic time windows of these drugs in focal cerebral ischemia were assessed by studying their effects to neurological symptom scores, infarct sizes and brain water contents during 24 hours after tMCAO.
The CCA and ICA were clipped with artery clips. Two No. 0 surgery lines were litigated on the ECA distal end with 2-3 mm spacing and then the vascular between the two surgery lines was cut. The distal end of ECA was pulled until it formed a straight line with the ICA. An incision was cut on ECA and a nylon line was inserted through ECA into ICA. After the artery clip was loosen, the nylon line was pushed on into the brain through ICA and inserted in depth of 18.5±0.5 mm when resistance was felt slightly. The nylon line reached a smaller anterior cerebral artery through the beginning of MCA and then the blood flow obstruction in right MCA was established. the animals were kept in anesthesia during the obstruction. After 2 hours of obstruction, the nylon line was gently pulled out to ECA stub to form reperfusion. During the surgery process, the animals were irradiated by table lamp of 100 W to maintain the body temperature. The room temperature was kept in range of 23-25° C.
(§2) 2.4 Experimental Grouping and Administration • Sham operation group (intravenous injection of normal saline after 3 hours of ischemia); • Model group (intravenous injection of 50 mg/kg hydroxypropyl β-cyclodextrin after 3 hours of ischemia); • Nimodipine group (1 mg/kg, administered after 3 hours of ischemia); • Pinocembrin racemate group (1 mg/kg, 5 mg/kg, administered after 3, 6 and 8 hours of ischemia); • (R)-pinocembrin group (1 mg/kg, 5 mg/kg, administered after 3 and 6 hours of ischemia); • (S)-pinocembrin group (1 mg/kg, 5 mg/kg, administered after 3 and 6 hours of ischemia).
(§3) First administration was performed by intravenous injection, and intraperitoneal injection was carried out once 12 hours later with a dose 1.5 times of that for intravenous injection.
Neurobehavioral examination was performed respectively when the animals were awake after surgery and before the animals were put to death. Bederson's score was adopted (see details in Example 2, 1. Neurobehavioral Examination).

For assay [2], the system named is tMCAO rats. In words: Brain water content, tMCAO time window study. As to conditions: 2 hours ischemia and 24 hours reperfusion. The procedure:
as §1, §2, §3
The wet weight of each animal's brain was weighted before sliced. After staining, the brain slices were dried at 105° C. for 24 hours, and the dry weight of each animal's brain was weighted. The brain water contents of animals of various groups were compared. Brain water content=(brain wet weight−brain dry weight)/brain wet weight×100%.

`O=C1CC(c2ccccc2)Oc2cc(O)cc(O)c21` (racemic) [Pinocembrin racemate, pinocembrin racemate]: the results for the Plasma fibrinogen in the assay with plasma fibrinogen (3 mg/kg), in the assay on plasma fibrinogen (10 mg/kg) and in the assay on plasma fibrinogen (30 mg/kg) were 2.79 ± 0.13, 2.62 ± 0.15 and 2.56 ± 0.42, respectively. The values for the ET-1 content in the assay on plasma ET-1 (3 mg/kg), in the assay with plasma ET-1 (10 mg/kg) and in the assay on plasma ET-1 (30 mg/kg) were 221.4 ± 20.4, 209.2 ± 16.7 and 182.4 ± 24.2, respectively. Besides, the “Percentage of infarct volume (%)” value in the assay with MCAO rats (3 mg/kg) turned out to be 23.1 ± 3.4 %; with MCAO rats (3 mg/kg, listed as pinocembrin racemate), 23.1±3.4%; in the assay with MCAO rats (10 mg/kg) it was 21.4 ± 2.1 %; in the assay on MCAO rats (10 mg/kg, listed as pinocembrin racemate) it was 21.4±2.1%; in the assay on MCAO rats (30 mg/kg) it was 14.6 ± 1.1 %; in the assay with MCAO rats (30 mg/kg, listed as pinocembrin racemate), 14.6±1.1%. The Neurobehavioral value in the assay on tMCAO rats [1] (1 mg/kg, 3 h) amounted to 1.44 ± 0.72; in the assay with tMCAO rats [1] (1 mg/kg, 6 h) it was 1.68 ± 0.46; with tMCAO rats [1] (1 mg/kg, 8 h) it was 1.88 ± 0.61; with tMCAO rats [1] (5 mg/kg, 3 h), 1.44 ± 0.52; in the assay with tMCAO rats [1] (5 mg/kg, 6 h), 1.66 ± 0.77; in the assay with tMCAO rats [1] (5 mg/kg, 8 h) it was 1.91 ± 0.66. For the same molecule, the “Brain water content (%)” value came out at 82.20 ± 1.00 % with tMCAO rats [2] (1 mg/kg, 3 h); 82.44 ± 1.28 % in the assay with tMCAO rats [2] (1 mg/kg, 6 h); 83.26 ± 1.05% with tMCAO rats [2] (1 mg/kg, 8 h); 82.23 ± 1.42 % in the assay with tMCAO rats [2] (5 mg/kg, 3 h); 81.12 ± 1.42 % in the assay with tMCAO rats [2] (5 mg/kg, 6 h); 83.29 ± 1.79% in the assay with tMCAO rats [2] (5 mg/kg, 8 h).

`COCCOC(=O)C1=C(C)NC(C)=C(C(=O)OC(C)C)C1c1cccc([N+](=O)[O-])c1` (stereo not drawn) [Nimodipine, reference compound] came in with a Plasma fibrinogen with plasma fibrinogen (3 mg/kg) of 2.67 ± 0.13. This molecule also returned an ET-1 content in the assay with plasma ET-1 (3 mg/kg) of 174.8 ± 20.8. Besides, the “Percentage of infarct volume (%)” value in the assay with MCAO rats (3 mg/kg) was determined as 16.7 ± 1.3 %; in the assay on MCAO rats (3 mg/kg, listed as nimodipine) it was 16.7±1.3%. In the assay on tMCAO rats [1] (1 mg/kg, 3 h), this molecule returned a Neurobehavioral value of 2.09 ± 0.63. For the same molecule, the “Brain water content (%)” value in the assay on tMCAO rats [2] (1 mg/kg, 3 h) was determined as 83.33 ± 1.01%.
